Laboratory results as given in patent US20230102554A1 (GB002, INC., priority 2019, published 2023).

How the values were obtained:
[1] = molecular target: T1, Human PDGFRβ, cytoplasmic domain (GST-PDGFRβ) (Homo sapiens, UniProt P09619); test: Human PDGFRβ biochemical inhibition assay (off-chip Mobility Shift Assay)
T1 construct: made in house
In short: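 GST-tagged cytoplasmic domain (aa 557-1106) from baculovirus was incubated 1 h at room temperature with compound, CSKtide, ATP at Km and Mg²⁺ in HEPES buffer, pH 7.5. Phosphorylated and unphosphorylated peptide were separated by off-chip mobility shift, and the product ratio P/(P+S) gave percent inhibition.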

[2] = molecular target: T2, Human PDGFRα, cytoplasmic domain (GST-PDGFRα) (Homo sapiens, UniProt P16234); test: Human PDGFRα biochemical inhibition assay (off-chip Mobility Shift Assay)
T2 construct: made in house
T2 sequence (P16234 550-1089 T674I): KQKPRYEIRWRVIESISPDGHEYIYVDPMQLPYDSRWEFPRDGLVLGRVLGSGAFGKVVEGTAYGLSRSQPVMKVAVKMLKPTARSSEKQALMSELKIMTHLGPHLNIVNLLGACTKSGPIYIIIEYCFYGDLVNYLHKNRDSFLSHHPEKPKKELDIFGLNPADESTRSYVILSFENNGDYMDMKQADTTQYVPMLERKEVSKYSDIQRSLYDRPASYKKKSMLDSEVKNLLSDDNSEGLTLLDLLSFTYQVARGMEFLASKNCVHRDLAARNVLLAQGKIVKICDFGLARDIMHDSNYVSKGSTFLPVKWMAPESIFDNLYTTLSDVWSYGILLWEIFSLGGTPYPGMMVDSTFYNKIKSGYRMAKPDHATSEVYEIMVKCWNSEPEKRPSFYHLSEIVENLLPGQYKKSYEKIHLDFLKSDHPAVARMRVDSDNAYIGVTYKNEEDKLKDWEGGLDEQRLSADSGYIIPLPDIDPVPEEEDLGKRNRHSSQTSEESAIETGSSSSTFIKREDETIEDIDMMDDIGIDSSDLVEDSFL

T1 sequence (P09619 with tags, fused parts or gaps): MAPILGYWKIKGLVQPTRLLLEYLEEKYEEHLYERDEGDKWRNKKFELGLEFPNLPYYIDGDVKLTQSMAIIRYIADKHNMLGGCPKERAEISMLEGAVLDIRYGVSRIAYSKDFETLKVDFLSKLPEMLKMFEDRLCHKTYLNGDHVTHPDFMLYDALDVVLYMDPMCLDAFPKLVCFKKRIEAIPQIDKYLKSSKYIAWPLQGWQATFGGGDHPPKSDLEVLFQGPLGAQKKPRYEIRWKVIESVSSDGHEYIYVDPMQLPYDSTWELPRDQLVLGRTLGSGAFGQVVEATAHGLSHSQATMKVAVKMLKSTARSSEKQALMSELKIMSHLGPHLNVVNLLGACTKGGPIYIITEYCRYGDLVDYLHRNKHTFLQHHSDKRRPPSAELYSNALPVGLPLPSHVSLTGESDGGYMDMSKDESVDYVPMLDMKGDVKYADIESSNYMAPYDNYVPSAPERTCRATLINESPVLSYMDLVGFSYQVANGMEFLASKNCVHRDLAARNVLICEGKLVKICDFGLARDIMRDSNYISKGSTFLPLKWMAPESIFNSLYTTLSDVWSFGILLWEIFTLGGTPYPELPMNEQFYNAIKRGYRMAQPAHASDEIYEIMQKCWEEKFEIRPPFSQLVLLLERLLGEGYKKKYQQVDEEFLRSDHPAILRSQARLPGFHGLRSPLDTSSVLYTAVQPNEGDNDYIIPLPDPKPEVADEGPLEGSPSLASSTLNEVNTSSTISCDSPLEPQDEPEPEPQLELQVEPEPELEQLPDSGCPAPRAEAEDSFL

| Structure (SMILES) | IC50 [1] | IC50 [2] |
| --- | --- | --- |
| CCc1cc2ncc(N[C@@H](C)c3cc(NC(=O)c4ccc(C(F)(F)F)nc4)ccc3F)nc2o1 [Compound 619, (S)-N-(3-(1-((6-ethylfuro[2,3-b]pyrazin-3-yl)amino)ethyl)-4-fluorophenyl)-6-(trifluoromethyl)nicotinamide] | < 0.3 µM | < 0.3 µM |
| CCn1cc2ncc(N[C@@H](C)c3cccc(NC(=O)Nc4ccc(OC(F)(F)F)nc4)c3)nc2n1 [Compound 407, (S)-1-(3-(1-((2-ethyl-2H-pyrazolo[3,4-b]pyrazin-6-yl)amino)ethyl)phenyl)-3-(6-(trifluoromethoxy)pyridin-3-yl) urea] | < 0.3 µM | < 0.3 µM |
| C[C@H](Nc1cnc2[nH]cc(-c3cnn(C)c3)c2n1)c1cccc(NC(=O)c2cnc(C(F)(F)F)s2)c1 [Compound 582, (S)-N-(3-(1-((7-(1-methyl-1H-pyrazol-4-yl)-5H-pyrrolo[2,3-b]pyrazin-2-yl)amino)ethyl)phenyl)-2-(trifluoromethyl) thiazole-5-carboxamide] | 0.3 to 1 µM | 0.3 to 1 µM |
| CCn1cc2ncc(N[C@@H](C)c3cccc(NC(=O)c4ccc5c(c4)CCNC5)c3)nc2n1 [Compound 66, (S)-N-(3-(1-((2-ethyl-2H-pyrazolo[3,4-b]pyrazin-6-yl)amino)ethyl)phenyl)-1,2,3,4-tetrahydroisoquinoline-6-carboxamide] | 0.3 to 1 µM | < 0.3 µM |
| CCn1cc2ncc(N[C@@H](C)c3cc(NC(=O)Cc4cncc(C)c4)ccc3C)nc2n1 [Compound 666, (S)-N-(3-(1-((2-ethyl-2H-pyrazolo[3,4-b]pyrazin-6-yl)amino)ethyl)-4-methylphenyl)-2-(5-methylpyridin-3-yl) acetamide] | < 0.3 µM | < 0.3 µM |
| C=Cc1ccc(C(=O)Nc2cccc([C@H](C)Nc3cnc4cnn(C)c4n3)c2)cc1C [Compound 246, (S)-3-methyl-N-(3-(1-((1-methyl-1H-pyrazolo[3,4-b]pyrazin-6-yl)amino)ethyl)phenyl)-4-vinylbenzamide] | < 0.3 µM | < 0.3 µM |
| CCn1cc2ncc(N[C@@H](C)c3cc(NC(=O)c4ccc(C(F)(F)F)nc4)ccc3F)nc2n1 [Compound 10, (S)—N-(3-(1-((2-ethyl-2H-pyrazolo[3,4-b]pyrazin-6-yl)amino)ethyl)-4-fluorophenyl)-6-(trifluoromethyl)nicotinamide] | < 0.3 µM | < 0.3 µM |
| CCn1cc2ncc(N[C@@H](C)c3cccc(NC(=O)c4ccc(N5CCCC5)c(F)c4)c3)nc2n1 [Compound 441, (S)-N-(3-(1-((2-ethyl-2H-pyrazolo[3,4-b]pyrazin-6-yl)amino)ethyl)phenyl)-3-fluoro-4-(pyrrolidin-1-yl)benzamide] | < 0.3 µM | < 0.3 µM |
| CCn1cc2ncc(N[C@@H](C)c3cccc(NC(=O)Cc4ccccc4)c3)nc2n1 [Compound 633, (S)-N-(3-(1-((2-ethyl-2H-pyrazolo[3,4-b]pyrazin-6-yl)amino)ethyl)phenyl)-2-phenylacetamide] | 0.3 to 1 µM | < 0.3 µM |
| CCn1cc2ncc(N[C@@H](C)c3cccc(NC(=O)c4ccc(CN5CC(O)C5)c(C)c4)c3)nc2n1 [Compound 496, (S)-N-(3-(1-((2-ethyl-2H-pyrazolo[3,4-b]pyrazin-6-yl)amino)ethyl)phenyl)-4-((3-hydroxyazetidin-1-yl)methyl)-3-methylbenzamide] | 0.3 to 1 µM | < 0.3 µM |
| Cc1cncc(C(=O)Nc2cccc([C@H](C)Nc3cnn4ccccc34)c2)c1 [Compound 20, (S)-5-methyl-N-(3-(1-(pyrazolo[1,5-a]pyridin-3-ylamino)ethyl)phenyl)nicotinamide] | ≥ 1 µM | ≥ 1 µM |
| C[C@H](Nc1cnc2cn(CC3CNC3)nc2n1)c1cc(NC(=O)c2cnc(C(F)(F)F)s2)ccc1F [Compound 391, (S)-N-(3-(1-((2-(azetidin-3-ylmethyl)-2H-pyrazolo[3,4-b]pyrazin-6-yl)amino)ethyl)-4-fluorophenyl)-2-(trifluoromethyl)thiazole-5-carboxamide] | < 0.3 µM | < 0.3 µM |
| C[C@H](Nc1cnc2cnn(C)c2n1)c1cccc(NC(=O)c2cnc3ccn(C)c3c2)c1 [Compound 46, (S)-1-methyl-N-(3-(1-((1-methyl-1H-pyrazolo[3,4-b]pyrazin-6-yl)amino)ethyl)phenyl)-1H-pyrrolo[3,2-b] pyridine-6-carboxamide] | < 0.3 µM | < 0.3 µM |
| Cc1cncc(C(=O)Nc2cccc([C@H](C)Nc3cnc4[nH]cc(C5CC5)c4n3)c2)c1 [Compound 569, (S)-N-(3-(1-((7-cyclopropyl-5H-pyrrolo[2,3-b]pyrazin-2-yl)amino)ethyl)phenyl)-5-methylnicotinamide] | < 0.3 µM | 0.3 to 1 µM |
| C[C@H](Nc1cnc2cnn(C)c2n1)c1cccc(NC(=O)c2cncc(C(F)F)c2)c1 [Compound 103, (S)-5-(difluoromethyl)-N-(3-(1-((1-methyl-1H-pyrazolo[3,4-b]pyrazin-6-yl)amino)ethyl)phenyl)nicotinamide] | < 0.3 µM | < 0.3 µM |
| CCn1cc2ncc(N[C@@H](C)c3cc(NC(=O)c4cc(F)c(CN5CCN(C)CC5)c(Cl)c4)ccc3C)nc2n1 [Compound 518, (S)-3-chloro-N-(3-(1-((2-ethyl-2H-pyrazolo[3,4-b]pyrazin-6-yl)amino)ethyl)-4-methylphenyl)-5-fluoro-4-((4-methylpiperazin-1-yl)methyl)benzamide] | < 0.3 µM | < 0.3 µM |
| CCn1cc2ncc(N[C@@H](C)c3cccc(NC(=O)c4ccc(N5CCOCC5)c(Cl)c4)c3)nc2n1 [Compound 360, (S)-3-chloro-N-(3-(1-((2-ethyl-2H-pyrazolo[3,4-b]pyrazin-6-yl)amino)ethyl)phenyl)-4-morpholinobenzamide] | < 0.3 µM | < 0.3 µM |
| Cc1cncc(C(=O)Nc2cccc([C@H](C)Nc3cnc4[nH]cc(-c5ccncc5)c4n3)c2)c1 [Compound 592, (S)-5-methyl-N-(3-(1-((7-(pyridin-4-yl)-5H-pyrrolo[2,3-b]pyrazin-2-yl)amino)ethyl)phenyl)nicotinamide] | < 0.3 µM | < 0.3 µM |
| Cc1cncc(C(=O)Nc2cccc([C@H](C)Nc3cnc4[nH]c(=O)n(C)c4n3)c2)c1 [Compound 12, (S)-5-methyl-N-(3-(1-((3-methyl-2-oxo-2,3-dihydro-1H-imidazo[4,5-b]pyrazin-5-yl)amino)ethyl)phenyl)nicotinamide] | < 0.3 µM | < 0.3 µM |

Other lines, results leading:

| IC50 [1] | IC50 [2] | Structure (SMILES) |
| --- | --- | --- |
| < 0.3 µM | < 0.3 µM | CCn1cc2ncc(N[C@@H](C)c3cccc(NC(=O)c4ccc(N5CCN(C)CC5)c(C(F)(F)F)c4)c3)nc2n1 [Compound 436, (S)-N-(3-(1-((2-ethyl-2H-pyrazolo[3,4-b]pyrazin-6-yl)amino)ethyl)phenyl)-4-(4-methylpiperazin-1-yl)-3-(trifluoromethyl)benzamide] |
| < 0.3 µM | < 0.3 µM | CCn1cc2ncc(N[C@@H](C)c3cccc(NC(=O)c4ccc(N(C)C)c(C)c4)c3)nc2n1 [Compound 384, (S)-4-(dimethylamino)-N-(3-(1-((2-ethyl-2H-pyrazolo[3,4-b]pyrazin-6-yl)amino)ethyl)phenyl)-3-methylbenzamide] |
| < 0.3 µM | < 0.3 µM | CCn1cc2ncc(N[C@@H](C)c3cc(NC(=O)c4ccc(OC(F)(F)F)nc4)ccc3F)nc2n1 [Compound 303, (S)-N-(3-(1-((2-ethyl-2H-pyrazolo[3,4-b]pyrazin-6-yl)amino)ethyl)-4-fluorophenyl)-6-(trifluoromethoxy)nicotinamide] |
| < 0.3 µM | < 0.3 µM | COC(=O)c1ccc(C(=O)Nc2cccc([C@H](C)Nc3cnc4cnn(C)c4n3)c2)cc1C [Compound 199, methyl (S)-2-methyl-4-((3-(1-((1-methyl-1H-pyrazolo[3,4-b]pyrazin-6-yl)amino)ethyl)phenyl)carbamoyl)benzoate] |
| < 0.3 µM | < 0.3 µM | Cc1cc(C(=O)Nc2cccc([C@H](C)Nc3cnc4cnn(C)c4n3)c2)cnc1N1CCN(C)CC1 [Compound 195, (S)-5-methyl-N-(3-(1-((1-methyl-1H-pyrazolo[3,4-b]pyrazin-6-yl)amino)ethyl)phenyl)-6-(4-methylpiperazin-1-yl)nicotinamide] |
| < 0.3 µM | < 0.3 µM | Cc1cncc(C(=O)Nc2ccc(F)c([C@H](C)Nc3cnc4cnn(C)c4n3)c2)c1 [Compound 172] |
| < 0.3 µM | < 0.3 µM | C[C@H](Nc1cnc2cn[nH]c2n1)c1cccc(NC(=O)c2ccc(C(F)(F)F)nc2)c1 [Compound 99, (S)-N-(3-(1-((1H-pyrazolo[3,4 b]pyrazin-6-yl)amino)ethyl)phenyl)-6-(trifluoromethyl) nicotinamide] |
| < 0.3 µM | < 0.3 µM | Cc1cncc(C(=O)Nc2cccc([C@H](C)Nc3cnc4cn[nH]c4n3)c2)c1 [Compound 90, (S)-N-(3-(1-((1H-pyrazolo[3,4-b]pyrazin-6-yl)amino)ethyl)phenyl)-5-methylnicotinamide] |
| 0.3 to 1 µM | < 0.3 µM | CCn1cc2ncc(N[C@@H](C)c3cccc(NC(=O)Cc4cc(C)c(Cl)cn4)c3)nc2n1 [Compound 695, (S)-2-(5-chloro-4-methylpyridin-2-yl)-N-(3-(1-((2-ethyl-2H-pyrazolo[3,4-b]pyrazin-6-yl)amino)ethyl)phenyl)acetamide] |
| ≥ 1 µM | < 0.3 µM | CCn1cc2ncc(N[C@@H](C)c3cc(NC(=O)Cc4cc(CN5CCN(C)CC5)c(C)cn4)ccc3C)nc2n1 [Compound 722, (S)-N-(3-(1-((2-ethyl-2H-pyrazolo[3,4-b]pyrazin-6-yl)amino)ethyl)-4-methylphenyl)-2-(5-methyl-4-((4-methylpiperazin-1-yl)methyl)pyridin-2-yl)acetamide] |
| < 0.3 µM | < 0.3 µM | CCn1cc2ncc(N[C@@H](C)c3cc(NC(=O)Cc4cccc(C)c4)ccc3F)nc2n1 [Compound 634, (S)-N-(3-(1-((2-ethyl-2H-pyrazolo[3,4-b]pyrazin-6-yl)amino)ethyl)-4-fluorophenyl)-2-(m-tolyl)acetamide] |
